Like-named read-outs stand apart in the source and are kept apart here.
How the values were obtained:
[1] = tested on: T. cruzi Querétaro strain trypomastigotes; test: In vitro infection of HFF-1 monolayers with trypomastigotes; release of trypomastigotes on the 5th day; assay type: cell-based; conditions: Trypanosoma cruzi; for IC50: HFF-1, monotherapy, release of trypomastigotes, Queretaro strain, 5th day, read-out: IC50 Monotherapy T. cruzi i.v. Infection
Description: To evaluate the effects of the antidiabetics alone, a model of in vitro infection with trypomastigotes of monolayers of human foreskin fibroblasts 1 (HFF-1) was used as described in the methodology; the criterium to determine efficacy was the ability to decrease the trypomastigotes’ release after the 4th–5th day post-infection. The T. cruzi Querétaro strain (TBAR/MX/0000/Querétaro) was used, which is classified in the Tc1 group, and is characterized by its high degree of virulence.
In 24-well tissue culture plates, 2 × 10^4 HFF-1 cells in 0.5 mL of DMEM + 10% FBS were deposited in each well and incubated at 37 °C for 24 h for adherence. Next, the incubation medium was changed to DMEM + 2% FBS (0.5 mL), and 3 × 10^5 trypomastigotes were added to infect cells for 2 h at 37 °C. After the incubation, the cells were vigorously washed three times with DMEM + 2% FBS to remove uninternalized trypomastigotes, taking care to preserve the monolayer integrity. Then, the infected cells were incubated in DMEM + 2% FBS for 4–5 days in the absence or presence of BNZ (0, 0.05, 0.1, 0.2, 0.5 µM) and antidiabetics (0, 1, 10, 25, 50 µM) in monotherapy; the drug compounds were purchased from SIGMA. For bi-therapy, the same concentrations of BNZ were used in the presence of 0.5 or 1 µM of antidiabetics. […] In every independent assay, a control of infected cells without BNZ or antidiabetics was always included, which served as no treatment. The number of released mobile trypomastigotes on the 5th day was determined by light microscopy using a Neubauer chamber.
(§1) For the IC50 calculation, individual data curves were fitted to the dose–response equation: y=A1+(A2−A1)/(1+10^(logx0−x)×p), where A1 < A2; p > 0; bottom asymptote: A1 = 1; top asymptote: A2 = 2; center: logx0 = −1; hill slope: p = 0.2; or logistic equation y=A2+(A1−A2)/(1+x/x0)^p, where A1 = initial value, A2 = final value, x0 = center and p = power using the Origin 8 Software. The IC50 values were manually selected from the curves fit.

[2] = tested on: T. cruzi Querétaro strain epimastigotes; test: Thiol metabolites (Cys, GSH, T(SH)2) in epimastigotes by HPLC; assay type: cell-based, Trypanosoma cruzi; conditions: 1 µM drug alone, 24 h
Experimental: Since thiol metabolite determination requires high amounts of biological material, the thiol determination content was performed in epimastigotes of the Queretaro strain. A 0.2 L culture of LIT medium was inoculated with epimastigotes at a density of 0.7 × 10^6 parasites/mL. The culture was incubated for 72 h at 28 °C, reaching, at the exponential growth phase, a concentration of 3 × 10^6 parasites/mL. The culture was separated into 8 aliquots of 25 mL, and 1 µM BNZ was added alone or in combination with 1 µM of the antidiabetic drugs. The cultures were incubated for 24 h at 28 °C. Subsequently, 1 mL of each sample was separated for protein determination, and the rest was used for thiol determination. Both samples were centrifuged at 20,817× g for 10 min; the pellets were washed twice with PBS. The pellets for protein were resuspended in 100 µL of Lowry’s solution A (2% Na2CO3, 0.4% NaOH, 0.16% Na-K tartrate, 1% SDS) and stored at −70 °C until protein determination using the Lowry method. The parasite pellets for thiol metabolite determination were immediately lysed by incubation in liquid nitrogen and stored at −70 °C.
Thiol determination was performed as described before. Cell lysates were thawed and resuspended in 90 µL of lysis buffer (20 mM Hepes, 1 mM EDTA, 0.15 mM KCl at pH 7), 20 mM DTT was added to each sample, and three cycles of freezing in liquid nitrogen and thawing at 37 °C were performed. The samples were centrifuged at 20,817× g for 10 min, and the supernatant was reduced with 2% sodium borohydride (NaBH4) and incubated for 10 min on ice. Then, perchloric acid was added at a final concentration of 3%, and the sample was centrifuged at 20,187× g for 2 min. The supernatant was filtered through a syringe-driven filter unit (0.45 µm) (Millipore; Carrigtwohill, County Cork, Ireland) and 20 µL of the eluate was injected in a high-performance liquid chromatography (HPLC) apparatus (Waters; Milford, MA, USA). The metabolites were separated in a C18 reverse-phase column (Altima, Columbia, MD, USA) using a mixture of acetonitrile—0.1% trifluoroacetic acid and a flux of 0.5 mL/min. The thiol metabolites were post-column derivatized with 0.1 mM di-thio-bis nitrobenzoic acid (DTNB), and the absorbance was detected at 412 nm with a UV-Vis detector coupled to the HPLC apparatus.

T. cruzi Ninoa strain = test: Short-term monotherapy in mice infected with T. cruzi; blood trypomastigote count; assay type: in vivo, CD1 mice; conditions: single dose 100 mg/kg, intragastric, at peak of parasitemia, 8 h compared to time 0
Experimental: The effect of the antidiabetic drugs and BNZ in the clearance of blood trypomastigotes in mice infected with T. cruzi in acute drug treatment in monotherapy was evaluated. Trypanosoma cruzi Ninoa strain was used for these experiments; this strain is classified in the Tc1 group like the Querétaro strain [27]; Ninoa is characterized by lower virulence and therefore lower mortality in mice compared to the Querétaro strain [28]. However, epimastigotes of Ninoa strain are more resistant to BNZ [27]. Then, the T. cruzi Ninoa strain seems to be a more appropriate parasitic source to evaluate drug susceptibility in mice.
Mice of the CD1 strain were infected with Ninoa strain (MHOM/MX/1994/Ninoa) following modified protocols previously reported. Briefly, blood trypomastigotes obtained from an infected mouse were diluted with 0.9% saline solution at a density of 1 × 10^5 trypomastigotes/mL, and 0.1 mL were intraperitoneally inoculated in mice weighing 30–40 g. […] After reaching a parasitemia peak of 22 × 10^6 blood trypomastigotes/mL (12–18 days post-inoculation), the mice were separated into 5 groups of 3 mice each for drug treatment (for bioethical requirements, the number of animals used was kept at a minimum, and 3 mice per group was sufficient to perform statistical analysis). BNZ and antidiabetic drugs at a concentration of 100 mg/kg weight; doses of 3.16–3.79 mg (depending on the weight of the mice) were administered, diluted in 0.5 mL of vehicle (Arabic gum at 4%, diluted in purified water) using an intragastric tube. Then, 5 µL of blood were immediately extracted from the caudal vein (t = 0), and blood sampling was performed every 2 h up to 8 h. Trypomastigotes were counted using a modified protocol of that reported by Pizzi–Brenner, as reported before. […] The criterion for evaluating efficacy was the percentage of trypanocidal effect at 8 h compared to time 0.

T. cruzi epimastigotes = conditions: cited from earlier work
[3] = parameters: method as in PMID 28673423, PMID 32592664, PMID 33043726; conditions: ref 1, 7, 8; cited from earlier work
HFF-1 cells = test: HFF-1 host cell growth after 5 days (Trypan blue exclusion count); assay type: cell-based, human; conditions: for IC50: Homo sapiens, HFF-1, 120 h, monotherapy, HFF-1 growth, 5 days, read-out: IC50 Monotherapy HFF-1 (n = 3)
Experimental: For HFF-1 IC50 evaluation, BNZ and the antidiabetic were varied as described above for the infection cultures, and cell proliferation was determined on the 5th day of growth, and the viability was determined by 0.2% Trypan blue exclusion (Corning Inc.; Corning, NY, USA). Briefly, the cells were washed twice with PBS-EDTA and later trypsinized for detachment. The cell suspension was homogenized with 150 µL of DMEM + 2% FBS, and an aliquot of 50 µL was diluted 1:1 with the solution of Trypan blue. The number of viable cells was counted using a Neubauer chamber under a microscope.
as §1

[4] = tested on: Leishmania donovani promastigotes; parameters: method as in PMID 30827222; conditions: ref 23; cited from earlier work
Echinococcus granulosus = tested on: Echinococcus granulosus; parameters: method as in PMID 29190739; conditions: monotherapy; cited from earlier work
Leishmania = conditions: alone; cited from earlier work
[5] = ref 15, read-out: IC50 on the growth of epimastigotes

Row | SMILES | IC50 [1] [µM] | Cys level [2] | GSH level [2] | T(SH)2 level [2] | decrease of the infection (blood trypomastigotes) (T. cruzi Ninoa strain) | IC50 (T. cruzi epimastigotes; [5]) [µM] | rate of treatment interruption [3] | decrease of the growth of host cells (HFF-1 cells; 0.26 µM BNZ in monotherapy) [%] | IC50 (HFF-1 cells) [µM] | inhibition at 0.2 µM ([1]; HFF-1, read-out: inhibition of infection) [%] | IC50 (T. cruzi epimastigotes; CLBrener strain, read-out: IC50 on growth of epimastigotes) [µM] | IC50 (T. cruzi epimastigotes; Ninoa strain, read-out: IC50 on growth of epimastigotes) [µM] | IC50 (T. cruzi epimastigotes; Querétaro strain, read-out: IC50 on growth of epimastigotes) [µM] | IC50 (T. cruzi epimastigotes; ref 25, read-out: IC50 on the growth of epimastigotes) [µM] | IC50 (T. cruzi epimastigotes; ref 38, read-out: IC50 on the growth of epimastigotes) [µM] | growth of Leishmania donovani promastigotes [4] | activity on Echinococcus granulosus infection in mice (Echinococcus granulosus) | effect on Leishmania infection (Leishmania) | decrease in Cys [2] [%]
1 | COc1ccc2c(c1)C(=O)N(CCc1ccc(S(=O)(=O)NC(=O)NC3CCCCC3)cc1)C(=O)C2(C)C [GLQ, gliquidone] | 7.6 ± 2 | increased | decreased | decreased | lower effect than BNZ | 12 |  |  |  |  |  |  |  |  |  |  |  |  | 
2 | CC1CS(=O)(=O)CCN1/N=C/c1ccc([N+](=O)[O-])o1 (stereo not drawn) [nifurtimox] |  |  |  |  |  |  | 14–75% |  |  |  |  |  |  |  |  |  |  |  | 
3 | O=C(Cn1ccnc1[N+](=O)[O-])NCc1ccccc1 [BNZ, benznidazole] | 0.26 ± 0.01 | slightly decrease |  | not observed | 80% |  | 9–29% | 20 | 0.9 ± 0.09 | 40 | 5.54 | 8.21 | 4.29 | 12 ± 2 | 9.4 ± 1.3 |  |  |  | 
4 | COc1ccc(Cl)cc1C(=O)NCCc1ccc(S(=O)(=O)NC(=O)NC2CCCCC2)cc1 [GBD, glyburide] | 8.4 ± 6.3 | increased | decreased | decreased | 60% | 66 |  |  |  |  |  |  |  |  |  | decreased their growth | anti-helmintic activity | decreased the infection | 
5 | Cc1cnc(C(=O)NCCc2ccc(S(=O)(=O)NC(=O)NC3CCCCC3)cc2)cn1 [GPZ, glipizide] | 14.3 ± 7 | decreased |  | increased | 60% | 13.4 |  |  | 35 ± 19 |  |  |  |  |  |  |  |  |  | ~50

— PMC11768481 (Pharmaceuticals, 2024)
